Assay results reported in the kinase profiling compilation of Christmann-Franck et al. (2016).

Key:
Assay in all cases: KINOMEscan competition binding
Settings in all cases: compound 10.0 µM
[1] = biological target: CAMK4 (human) (UniProt Q16566)
[2] = biological target: DDR2 (human) (UniProt Q16832)
[3] = biological target: NEK2 (human) (UniProt P51955)
[4] = biological target: DAPK3 (human) (UniProt O43293)
[5] = biological target: MAPK14 (human) (UniProt Q16539)
[6] = biological target: FLT4 (human) (UniProt P35916)
[7] = biological target: CLK4 (human) (UniProt Q9HAZ1)
[8] = biological target: MAPK7 (human) (UniProt Q13164)
[9] = biological target: PDGFRA (human) (UniProt P16234)
[10] = biological target: BMPR1B (human) (UniProt O00238)
[11] = biological target: NUAK2 (human) (UniProt Q9H093)
[12] = biological target: FES (human) (UniProt P07332)
[13] = biological target: NLK (human) (UniProt Q9UBE8)
[14] = biological target: RPS6KA1 KD1 (human) (UniProt Q15418)
[15] = biological target: MAP2K3 (human) (UniProt P46734)
[16] = biological target: MAP2K5 (human) (UniProt Q13163)
[17] = biological target: MET (human) (UniProt P08581)
[18] = biological target: PHKG1 (human) (UniProt Q16816)
[19] = biological target: BRSK1 (human) (UniProt Q8TDC3)
[20] = biological target: MAP4K4 (human) (UniProt O95819)
[21] = biological target: ULK1 (human) (UniProt O75385)
[22] = biological target: TGFBR1 (human) (UniProt P36897)
[23] = biological target: RIOK1 (human) (UniProt Q9BRS2)
[24] = biological target: RPS6KA6 KD1 (human) (UniProt Q9UK32)
[25] = biological target: PKN3 (M.tuberculosis) (UniProt Q6P5Z2)
[26] = biological target: RET (human) (UniProt P07949)
[27] = biological target: STK10 (human) (UniProt O94804)
[28] = biological target: FER (human) (UniProt P16591)
[29] = biological target: EPHA2 (human) (UniProt P29317)
[30] = biological target: CAMKK1 (human) (UniProt Q8N5S9)
[31] = biological target: BMPR1A (human) (UniProt P36894)
[32] = biological target: PKN2 (human) (UniProt Q16513)
[33] = biological target: PIM2 (human) (UniProt Q9P1W9)
[34] = biological target: FGFR2 (human) (UniProt P21802)
[35] = biological target: PAK6 (human) (UniProt Q9NQU5)
[36] = biological target: MAK (human) (UniProt P20794)
[37] = biological target: TAOK3 (human) (UniProt Q9H2K8)
[38] = biological target: IGF1R (human) (UniProt P08069)
[39] = biological target: PIK3C2G (human) (UniProt O75747)
[40] = biological target: ACVR1B (human) (UniProt P36896)

Chain of EPHA2 (human) (P29317 whole entry, looked up): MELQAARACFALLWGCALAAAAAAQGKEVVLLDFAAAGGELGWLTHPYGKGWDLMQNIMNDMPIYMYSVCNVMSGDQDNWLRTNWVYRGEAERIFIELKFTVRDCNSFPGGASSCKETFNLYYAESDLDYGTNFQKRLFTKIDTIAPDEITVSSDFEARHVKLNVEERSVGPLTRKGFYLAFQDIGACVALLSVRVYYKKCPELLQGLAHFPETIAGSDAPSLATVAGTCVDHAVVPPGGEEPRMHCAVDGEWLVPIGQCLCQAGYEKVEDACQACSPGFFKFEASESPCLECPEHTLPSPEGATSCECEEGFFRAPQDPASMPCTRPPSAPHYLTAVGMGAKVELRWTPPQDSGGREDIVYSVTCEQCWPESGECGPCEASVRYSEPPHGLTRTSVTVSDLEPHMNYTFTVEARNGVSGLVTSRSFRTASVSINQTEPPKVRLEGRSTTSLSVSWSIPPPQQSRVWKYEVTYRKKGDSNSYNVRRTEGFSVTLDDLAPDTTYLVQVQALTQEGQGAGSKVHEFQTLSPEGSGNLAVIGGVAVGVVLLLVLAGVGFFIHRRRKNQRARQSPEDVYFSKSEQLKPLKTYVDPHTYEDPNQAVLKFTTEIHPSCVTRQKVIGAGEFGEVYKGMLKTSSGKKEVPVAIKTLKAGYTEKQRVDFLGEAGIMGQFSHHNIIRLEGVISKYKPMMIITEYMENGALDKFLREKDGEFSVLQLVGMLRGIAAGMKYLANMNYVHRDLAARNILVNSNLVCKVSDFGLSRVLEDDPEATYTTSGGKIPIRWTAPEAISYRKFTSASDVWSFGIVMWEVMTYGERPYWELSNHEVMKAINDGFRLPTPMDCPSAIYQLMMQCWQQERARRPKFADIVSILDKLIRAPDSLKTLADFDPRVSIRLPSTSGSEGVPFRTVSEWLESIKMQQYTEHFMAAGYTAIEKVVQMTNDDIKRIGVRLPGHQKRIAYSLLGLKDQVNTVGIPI
Chain of TAOK3 (human) (Q9H2K8 whole entry, looked up): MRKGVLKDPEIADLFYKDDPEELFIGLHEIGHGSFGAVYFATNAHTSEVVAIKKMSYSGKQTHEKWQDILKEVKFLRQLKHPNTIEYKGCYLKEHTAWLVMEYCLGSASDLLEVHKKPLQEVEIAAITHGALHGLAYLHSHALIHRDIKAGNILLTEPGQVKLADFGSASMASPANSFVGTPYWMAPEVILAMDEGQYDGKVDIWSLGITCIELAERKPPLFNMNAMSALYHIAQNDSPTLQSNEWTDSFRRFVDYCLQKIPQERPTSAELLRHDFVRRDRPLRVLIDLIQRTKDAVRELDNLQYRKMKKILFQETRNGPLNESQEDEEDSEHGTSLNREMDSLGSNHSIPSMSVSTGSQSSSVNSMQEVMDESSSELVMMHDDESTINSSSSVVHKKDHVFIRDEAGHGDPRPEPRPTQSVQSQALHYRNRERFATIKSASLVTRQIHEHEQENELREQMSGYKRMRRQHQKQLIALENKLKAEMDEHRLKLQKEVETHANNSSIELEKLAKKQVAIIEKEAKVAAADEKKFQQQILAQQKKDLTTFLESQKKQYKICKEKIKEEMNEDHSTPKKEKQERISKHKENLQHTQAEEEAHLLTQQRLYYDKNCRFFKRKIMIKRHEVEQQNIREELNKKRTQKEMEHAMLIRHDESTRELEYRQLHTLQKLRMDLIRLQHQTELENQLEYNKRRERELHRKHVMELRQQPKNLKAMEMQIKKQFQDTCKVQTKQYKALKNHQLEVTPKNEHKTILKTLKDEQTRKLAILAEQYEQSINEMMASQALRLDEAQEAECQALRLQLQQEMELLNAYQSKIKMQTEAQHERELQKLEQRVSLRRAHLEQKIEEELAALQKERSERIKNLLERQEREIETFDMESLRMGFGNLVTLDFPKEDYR
Chain of BMPR1B (human) (O00238 whole entry, looked up): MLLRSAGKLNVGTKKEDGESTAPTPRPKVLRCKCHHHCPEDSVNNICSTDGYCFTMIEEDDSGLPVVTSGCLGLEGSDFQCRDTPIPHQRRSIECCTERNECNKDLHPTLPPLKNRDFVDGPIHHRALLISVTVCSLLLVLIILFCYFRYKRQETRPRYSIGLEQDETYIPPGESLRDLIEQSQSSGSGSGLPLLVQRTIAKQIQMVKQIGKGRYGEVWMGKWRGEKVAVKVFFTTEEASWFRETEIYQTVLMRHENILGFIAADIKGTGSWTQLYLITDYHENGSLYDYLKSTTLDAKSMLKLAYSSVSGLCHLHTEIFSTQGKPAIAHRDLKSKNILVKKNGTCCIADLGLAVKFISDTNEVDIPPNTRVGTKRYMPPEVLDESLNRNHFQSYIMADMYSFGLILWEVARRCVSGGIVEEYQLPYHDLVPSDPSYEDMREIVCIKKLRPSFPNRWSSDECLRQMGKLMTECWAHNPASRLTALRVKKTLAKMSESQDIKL
Chain of BRSK1 (human) (Q8TDC3 whole entry, looked up): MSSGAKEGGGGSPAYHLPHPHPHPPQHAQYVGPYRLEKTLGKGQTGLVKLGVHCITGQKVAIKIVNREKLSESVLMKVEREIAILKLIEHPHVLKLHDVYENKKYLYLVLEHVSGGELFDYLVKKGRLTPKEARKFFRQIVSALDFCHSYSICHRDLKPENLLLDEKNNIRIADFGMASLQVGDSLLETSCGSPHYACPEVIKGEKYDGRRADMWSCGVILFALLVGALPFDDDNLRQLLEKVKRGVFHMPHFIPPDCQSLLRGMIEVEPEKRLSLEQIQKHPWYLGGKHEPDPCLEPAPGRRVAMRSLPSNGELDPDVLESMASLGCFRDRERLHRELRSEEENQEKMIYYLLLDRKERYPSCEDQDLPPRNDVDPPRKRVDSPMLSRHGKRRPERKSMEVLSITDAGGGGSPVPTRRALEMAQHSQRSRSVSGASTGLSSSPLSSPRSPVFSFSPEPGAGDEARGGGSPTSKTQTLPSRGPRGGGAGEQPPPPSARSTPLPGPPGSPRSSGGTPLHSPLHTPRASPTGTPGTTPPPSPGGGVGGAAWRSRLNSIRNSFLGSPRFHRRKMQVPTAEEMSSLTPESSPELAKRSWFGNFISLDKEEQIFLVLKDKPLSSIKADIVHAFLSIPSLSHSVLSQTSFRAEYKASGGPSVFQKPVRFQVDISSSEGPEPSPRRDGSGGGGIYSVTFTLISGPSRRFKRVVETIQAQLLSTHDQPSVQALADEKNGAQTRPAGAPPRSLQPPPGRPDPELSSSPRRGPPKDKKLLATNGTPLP
Chain of DDR2 (human) (Q16832 whole entry, looked up): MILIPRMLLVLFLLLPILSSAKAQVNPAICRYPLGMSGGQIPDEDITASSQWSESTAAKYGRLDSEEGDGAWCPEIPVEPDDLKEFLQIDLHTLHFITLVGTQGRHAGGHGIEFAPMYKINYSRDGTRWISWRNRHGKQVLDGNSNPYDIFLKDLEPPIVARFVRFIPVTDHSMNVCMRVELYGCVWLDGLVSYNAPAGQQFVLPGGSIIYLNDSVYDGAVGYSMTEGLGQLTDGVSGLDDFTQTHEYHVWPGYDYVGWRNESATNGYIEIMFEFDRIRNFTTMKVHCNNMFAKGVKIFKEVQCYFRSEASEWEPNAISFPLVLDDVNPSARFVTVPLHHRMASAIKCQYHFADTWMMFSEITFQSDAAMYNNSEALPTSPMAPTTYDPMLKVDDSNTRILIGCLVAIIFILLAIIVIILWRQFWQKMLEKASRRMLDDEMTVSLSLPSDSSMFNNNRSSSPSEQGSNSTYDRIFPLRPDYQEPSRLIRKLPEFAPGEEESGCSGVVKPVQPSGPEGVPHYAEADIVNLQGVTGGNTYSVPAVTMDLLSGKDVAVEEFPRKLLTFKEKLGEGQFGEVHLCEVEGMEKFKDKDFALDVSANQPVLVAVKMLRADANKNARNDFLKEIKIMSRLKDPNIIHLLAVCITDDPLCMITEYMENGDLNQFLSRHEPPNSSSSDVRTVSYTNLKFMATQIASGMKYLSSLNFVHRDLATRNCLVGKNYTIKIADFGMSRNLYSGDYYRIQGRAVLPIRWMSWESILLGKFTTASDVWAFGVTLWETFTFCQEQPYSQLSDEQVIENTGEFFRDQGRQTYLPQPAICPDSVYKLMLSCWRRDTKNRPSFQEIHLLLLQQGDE
Chain of MAPK7 (human) (Q13164 whole entry, looked up): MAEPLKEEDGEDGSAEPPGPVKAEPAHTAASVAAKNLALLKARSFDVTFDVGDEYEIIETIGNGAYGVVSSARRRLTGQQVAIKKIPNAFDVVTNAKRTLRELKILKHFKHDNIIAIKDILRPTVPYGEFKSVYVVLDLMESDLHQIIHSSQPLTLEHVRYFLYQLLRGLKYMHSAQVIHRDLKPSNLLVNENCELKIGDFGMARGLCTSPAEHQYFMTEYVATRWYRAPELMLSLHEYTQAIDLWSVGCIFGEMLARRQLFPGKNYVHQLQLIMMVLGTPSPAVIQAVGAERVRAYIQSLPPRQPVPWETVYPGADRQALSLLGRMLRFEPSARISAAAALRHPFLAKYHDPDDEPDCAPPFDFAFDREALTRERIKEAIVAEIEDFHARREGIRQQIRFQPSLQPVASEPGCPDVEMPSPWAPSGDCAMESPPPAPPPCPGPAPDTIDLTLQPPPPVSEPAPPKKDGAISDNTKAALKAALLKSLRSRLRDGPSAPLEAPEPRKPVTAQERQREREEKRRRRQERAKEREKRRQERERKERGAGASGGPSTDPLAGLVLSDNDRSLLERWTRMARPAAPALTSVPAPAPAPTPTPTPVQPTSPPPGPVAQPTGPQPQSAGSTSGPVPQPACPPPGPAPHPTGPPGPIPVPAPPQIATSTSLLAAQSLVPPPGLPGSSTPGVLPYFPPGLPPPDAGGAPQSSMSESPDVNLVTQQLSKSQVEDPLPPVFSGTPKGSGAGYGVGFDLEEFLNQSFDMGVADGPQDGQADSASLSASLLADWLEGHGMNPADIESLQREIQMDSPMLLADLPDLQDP

`N#CCNC(=O)c1ccc(-c2ccnc(Nc3ccc(N4CCOCC4)cc3)n2)cc1` was tested, and the kinase still bound, per cent of control [1] was 100%, the kinase still bound, per cent of control [2] was 100% and the kinase still bound, per cent of control [3] was 77%. For the same molecule, the kinase still bound, per cent of control [4] was 11%, the kinase still bound, per cent of control [5] was 100% and the kinase still bound, per cent of control [6] was 48%. It also gave a kinase still bound, per cent of control [7] of 15%, a kinase still bound, per cent of control [8] of 48% and a kinase still bound, per cent of control [9] of 100%. It also gave a kinase still bound, per cent of control [10] of 85%, a kinase still bound, per cent of control [11] of 8.9% and a kinase still bound, per cent of control [12] of 100%. For the same molecule, the kinase still bound, per cent of control [13] was 86%, the kinase still bound, per cent of control [14] was 100% and the kinase still bound, per cent of control [15] was 53%. It also gave a kinase still bound, per cent of control [16] of 100%, a kinase still bound, per cent of control [17] of 100% and a kinase still bound, per cent of control [18] of 78%. It also gave a kinase still bound, per cent of control [19] of 100%, a kinase still bound, per cent of control [20] of 85% and a kinase still bound, per cent of control [21] of 40%. The kinase still bound, per cent of control [22] was 76%, the kinase still bound, per cent of control [23] was 1% and the kinase still bound, per cent of control [24] was 78%. The kinase still bound, per cent of control [25] was 8.7%, the kinase still bound, per cent of control [26] was 50% and the kinase still bound, per cent of control [27] was 100%. For the same molecule, the kinase still bound, per cent of control [28] was 100%, the kinase still bound, per cent of control [29] was 100% and the kinase still bound, per cent of control [30] was 27%. It also gave a kinase still bound, per cent of control [31] of 3.6%, a kinase still bound, per cent of control [32] of 47% and a kinase still bound, per cent of control [33] of 100%. The kinase still bound, per cent of control [34] was 58%, the kinase still bound, per cent of control [35] was 100% and the kinase still bound, per cent of control [36] was 100%. The kinase still bound, per cent of control [37] was 100%, the kinase still bound, per cent of control [38] was 100% and the kinase still bound, per cent of control [39] was 100%. The kinase still bound, per cent of control [40] was 38%.
`CCN1CCN(C(=O)Cc2ccc(Nc3ncc(F)c(Nc4ccc(C(=O)Nc5ccccc5Cl)cc4)n3)cc2)CC1` showed a kinase still bound, per cent of control [1] of 100%, a kinase still bound, per cent of control [2] of 100% and a kinase still bound, per cent of control [3] of 87%. It also gave a kinase still bound, per cent of control [4] of 5.2%, a kinase still bound, per cent of control [5] of 97% and a kinase still bound, per cent of control [6] of 7.6%. For the same molecule, the kinase still bound, per cent of control [7] was 28%, the kinase still bound, per cent of control [8] was 100% and the kinase still bound, per cent of control [9] was 38%. For the same molecule, the kinase still bound, per cent of control [10] was 22%, the kinase still bound, per cent of control [11] was 23% and the kinase still bound, per cent of control [12] was 48%. For the same molecule, the kinase still bound, per cent of control [13] was 98%, the kinase still bound, per cent of control [14] was 45% and the kinase still bound, per cent of control [15] was 57%. The kinase still bound, per cent of control [16] was 9.8%, the kinase still bound, per cent of control [17] was 8.6% and the kinase still bound, per cent of control [18] was 82%. For the same molecule, the kinase still bound, per cent of control [19] was 88%, the kinase still bound, per cent of control [20] was 69% and the kinase still bound, per cent of control [21] was 28%. The kinase still bound, per cent of control [22] was 57%, the kinase still bound, per cent of control [23] was 0% and the kinase still bound, per cent of control [24] was 37%. The kinase still bound, per cent of control [25] was 5%, the kinase still bound, per cent of control [26] was 1.8% and the kinase still bound, per cent of control [27] was 3.4%. It also gave a kinase still bound, per cent of control [28] of 100%, a kinase still bound, per cent of control [29] of 51% and a kinase still bound, per cent of control [30] of 25%. The kinase still bound, per cent of control [31] was 3.3%, the kinase still bound, per cent of control [32] was 100% and the kinase still bound, per cent of control [33] was 100%. For the same molecule, the kinase still bound, per cent of control [34] was 25%, the kinase still bound, per cent of control [35] was 65% and the kinase still bound, per cent of control [36] was 100%. It also gave a kinase still bound, per cent of control [37] of 69%, a kinase still bound, per cent of control [38] of 46% and a kinase still bound, per cent of control [39] of 39%. The kinase still bound, per cent of control [40] was 45%.
